Paper PMC5609566, “Elucidation of antimicrobial activity and mechanism of action by N-substituted carbazole derivatives” (Bioorganic & Medicinal Chemistry Letters, 2017)
In brackets after ≈: the same amount, converted by molar mass. Like-named read-outs stand apart in the source and are kept apart here.

Assays:
S. cerevisiae H^+-ATPase = target: T1, S. cerevisiae H^+-ATPase (Saccharomyces cerevisiae, UniProt P05030); test: Colorimetric ATPase assay (ATP hydrolysis), S. cerevisiae plasma membranes; assay type: biochemical; conditions: pH 7, n = 3
T1 construct: transformed with the full-length cDNA of the S. cerevisiae plasma membrane H^+-ATPase isoform PMA1; made in house; host or cells: S. cerevisiae RS72
T1 sequence (P05030 whole entry, canonical isoform): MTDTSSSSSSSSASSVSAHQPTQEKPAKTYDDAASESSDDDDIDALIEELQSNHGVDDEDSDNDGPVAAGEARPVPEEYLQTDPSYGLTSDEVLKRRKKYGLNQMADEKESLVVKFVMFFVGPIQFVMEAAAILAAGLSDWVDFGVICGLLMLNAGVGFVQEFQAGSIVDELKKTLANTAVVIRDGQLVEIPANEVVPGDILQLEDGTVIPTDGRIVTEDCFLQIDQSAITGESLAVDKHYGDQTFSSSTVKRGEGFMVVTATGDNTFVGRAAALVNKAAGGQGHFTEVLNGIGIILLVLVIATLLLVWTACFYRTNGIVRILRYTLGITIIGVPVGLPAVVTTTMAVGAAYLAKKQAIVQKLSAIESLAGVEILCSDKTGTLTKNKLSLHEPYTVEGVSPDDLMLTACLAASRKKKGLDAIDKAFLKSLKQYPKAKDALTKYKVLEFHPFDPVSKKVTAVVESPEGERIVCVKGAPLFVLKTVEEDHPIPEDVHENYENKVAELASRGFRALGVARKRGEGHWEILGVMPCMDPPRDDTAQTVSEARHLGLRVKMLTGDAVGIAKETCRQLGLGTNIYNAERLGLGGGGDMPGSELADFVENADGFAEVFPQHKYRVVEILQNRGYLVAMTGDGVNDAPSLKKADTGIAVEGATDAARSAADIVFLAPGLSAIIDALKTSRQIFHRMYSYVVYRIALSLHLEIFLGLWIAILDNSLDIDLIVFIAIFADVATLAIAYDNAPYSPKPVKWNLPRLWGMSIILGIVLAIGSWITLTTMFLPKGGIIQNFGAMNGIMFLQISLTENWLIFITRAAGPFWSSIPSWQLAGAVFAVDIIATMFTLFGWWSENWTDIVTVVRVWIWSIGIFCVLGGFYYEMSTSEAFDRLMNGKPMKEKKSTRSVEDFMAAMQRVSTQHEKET
Description: (§1) To investigate the H^+-ATPase inhibitory effect of the compounds we isolated plasma membranes containing H^+-ATPase from S. cerevisiae and C. albicans cells.[15] Plasma membranes isolated from pig kidney as well as endoplasmic reticulum membranes from rabbit hind leg muscle were used to counter-screen compounds for activity against mammalian Na^+,K^+-ATPase and Ca^2+-ATPase, respectively. Prior to their use, fungal plasma membrane batches were validated by determining the maximum ATP hydrolysis activity, the pH optimum of the ATPase activity, and the sensitivity to inhibition by orthovanadate. ATPase activity was determined by a colorimetric assay that measures the amount of inorganic phosphate liberated over time, as described in Kjellerup et al., 2017.[15] Table 2, Table 3, Table 4 list the IC50 values obtained by measuring the concentration dependence of the ATPase activity for the fifteen carbazole compounds with each of the four membrane preparations.
(§2) Pma1-containing plasma membranes were prepared from S. cerevisiae RS72 yeast cells that had been transformed with the full-length cDNA of the S. cerevisiae plasma membrane H^+-ATPase isoform PMA1 under control of the PMA1 promoter, using the same procedure as described in Kongstad et al., 2014^1. For the preparation of C. albicans membranes, a 100 ml overnight culture grown in YPD (10 g/L yeast extract (BD, Sparks, MD), 20 g/L Bacto peptone (BD), 20 g/L D-(+)-glucose) was transferred to 1 L YPD and grown for a further 7 h at RT with agitation (150 rpm), followed by cell harvesting and subsequent membrane preparation using the same procedure as described in Kongstad et al., 2014^1. […] Rabbit sarcoplasmic reticulum membranes containing Sarco/Endoplasmic Reticulum Ca^2+ ATPase (SERCA) were kindly provided by Dr. Claus E. Olesen and Dr. Jesper V. Møller, Aarhus University and prepared as described in Andersen et al., 1985^2. Pig kidney Na^+,K^+-ATPase was kindly provided by Dr. Natalya Fedosova, Aarhus University and prepared as described in Klodos et al., 2002^3.
(§3) The compound libraries were purchased from Enamine Ltd, Ukraine and Chembridge Corp, USA. ATPase activity was determined by measuring the amount of liberated phosphate from ATP hydrolysis. […] Reactions were initiated by the addition of Na-ATP to a final concentration of 2.5 mM (Pma1 and Na^+,K^+-ATPase) or 5 mM (SERCA), followed by 30 minutes incubation at 30 °C. The amount of liberated phosphate was determined colorimetrically after addition of STOP solution (mixture of L-ascorbic acid, ammonium heptamolybdate tetrahydrate, and HCl to give final concentrations of 65 mM, 2.2 mM, and 189 mM, respectively) with 5 minutes incubation at room temperature (RT) followed by addition of arsenite solution (mixture of NaAsO2, sodium citrate dihydrate, and acetic acid to give final concentrations of 3.1 mM, 28 mM, and 141 mM, respectively). Absorption was measured at 860 nm after an additional 30 minutes incubation at RT.

C. albicans H^+-ATPase = target: T2, C. albicans H^+-ATPase (Candida albicans, UniProt P28877); test: Colorimetric ATPase assay (ATP hydrolysis), C. albicans membranes; assay type: biochemical; conditions: pH 7, n = 3
T2 construct: endogenous in cells; host or cells: C. albicans culture grown in YPD; microsomal membrane preparation
T2 sequence (P28877 whole entry): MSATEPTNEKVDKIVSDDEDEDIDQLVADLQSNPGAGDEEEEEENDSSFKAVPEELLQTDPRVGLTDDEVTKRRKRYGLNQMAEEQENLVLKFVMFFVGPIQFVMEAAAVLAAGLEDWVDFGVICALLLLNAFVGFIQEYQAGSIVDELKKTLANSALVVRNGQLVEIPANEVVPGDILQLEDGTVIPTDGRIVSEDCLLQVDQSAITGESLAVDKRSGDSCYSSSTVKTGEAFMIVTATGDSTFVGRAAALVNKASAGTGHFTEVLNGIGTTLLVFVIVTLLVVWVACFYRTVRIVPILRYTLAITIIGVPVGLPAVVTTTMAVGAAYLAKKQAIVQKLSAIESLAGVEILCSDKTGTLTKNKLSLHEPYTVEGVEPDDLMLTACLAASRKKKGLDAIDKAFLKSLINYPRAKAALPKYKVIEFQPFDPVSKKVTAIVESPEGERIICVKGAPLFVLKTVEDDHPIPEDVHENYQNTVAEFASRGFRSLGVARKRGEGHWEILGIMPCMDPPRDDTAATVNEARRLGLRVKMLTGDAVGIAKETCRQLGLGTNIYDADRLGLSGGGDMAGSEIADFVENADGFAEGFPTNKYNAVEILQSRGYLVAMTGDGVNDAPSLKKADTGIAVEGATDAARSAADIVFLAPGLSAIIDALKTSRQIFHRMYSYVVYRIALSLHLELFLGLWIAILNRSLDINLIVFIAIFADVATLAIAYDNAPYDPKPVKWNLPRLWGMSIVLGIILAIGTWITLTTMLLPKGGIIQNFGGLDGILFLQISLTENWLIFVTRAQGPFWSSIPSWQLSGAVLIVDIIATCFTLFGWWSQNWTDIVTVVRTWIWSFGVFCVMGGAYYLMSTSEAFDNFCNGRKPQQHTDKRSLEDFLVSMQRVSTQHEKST
Description: as §1, §2, §3

Mammalian Ca^2+-ATPase = target: T3, Mammalian Ca^2+-ATPase (Oryctolagus cuniculus, UniProt P04191); test: Colorimetric ATPase assay, rabbit sarcoplasmic reticulum membranes (SERCA); assay type: biochemical
T3 construct: from tissue; host or cells: rabbit hind leg muscle, sarcoplasmic reticulum membranes (gift, Aarhus University)
T3 sequence (P04191 1-994 isoform P04191-2): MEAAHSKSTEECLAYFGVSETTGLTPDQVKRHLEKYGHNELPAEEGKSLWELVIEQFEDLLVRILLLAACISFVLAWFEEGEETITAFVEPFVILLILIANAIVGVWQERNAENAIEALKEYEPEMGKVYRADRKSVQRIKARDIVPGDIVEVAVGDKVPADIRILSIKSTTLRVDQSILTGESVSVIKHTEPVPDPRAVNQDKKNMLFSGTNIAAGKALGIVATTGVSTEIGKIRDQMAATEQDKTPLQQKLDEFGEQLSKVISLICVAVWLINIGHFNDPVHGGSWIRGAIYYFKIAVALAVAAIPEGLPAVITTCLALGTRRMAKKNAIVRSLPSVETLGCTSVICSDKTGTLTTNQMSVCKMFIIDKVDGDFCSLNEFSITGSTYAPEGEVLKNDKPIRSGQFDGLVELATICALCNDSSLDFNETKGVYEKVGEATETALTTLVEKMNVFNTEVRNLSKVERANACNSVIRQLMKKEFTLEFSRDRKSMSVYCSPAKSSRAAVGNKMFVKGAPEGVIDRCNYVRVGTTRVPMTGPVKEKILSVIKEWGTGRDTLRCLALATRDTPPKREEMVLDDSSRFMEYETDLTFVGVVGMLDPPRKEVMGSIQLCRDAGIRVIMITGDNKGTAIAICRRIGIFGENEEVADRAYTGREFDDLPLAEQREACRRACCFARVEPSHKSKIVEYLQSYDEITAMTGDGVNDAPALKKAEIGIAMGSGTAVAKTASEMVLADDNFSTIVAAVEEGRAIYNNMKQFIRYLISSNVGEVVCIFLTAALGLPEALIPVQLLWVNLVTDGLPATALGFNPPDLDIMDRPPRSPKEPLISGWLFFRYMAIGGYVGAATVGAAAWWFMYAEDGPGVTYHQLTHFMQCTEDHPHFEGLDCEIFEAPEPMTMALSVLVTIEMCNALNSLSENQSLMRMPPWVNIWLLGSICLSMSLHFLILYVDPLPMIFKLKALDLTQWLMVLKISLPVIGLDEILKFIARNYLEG
Description: as §1, §2, §3

[1] = target: T4, Mammalian Na^+,K^+-ATPase (Sus scrofa, UniProt P05024); test: Colorimetric ATPase assay, pig kidney membranes; assay type: biochemical; conditions: pH 7, n = 3; read-out: ATP hydrolysis IC50 Mammalian Na^+,K^+-ATPase
T4 construct: from tissue; host or cells: pig kidney plasma membranes (gift, Aarhus University; prepared per Klodos et al., 2002)
Description: as §1, §2, §3

Candida albicans SC5314 = test: Fungal growth inhibition MIC (MFC); assay type: cell-based; conditions: for MIC: Candida albicans SC5314, RPMI-1640; for MFC: Candida albicans SC5314, value in brackets
Description: (§4) We subsequently assessed the carbazole series for antifungal activity, as described in Kjellerup et al., 2017.[15] Table 2, Table 3, Table 4, Table 5 list the minimum inhibitory concentrations (MIC) and the minimum fungicidal concentrations (MFC) of the fifteen compounds tested against the yeasts Saccharomyces cerevisiae, Candida albicans, C. krusei, and two isolates of C. glabrata (a wild-type strain ATCC 90030 and a clinical azole-resistant isolate Cg003 with increased efflux pump expression[19]), and the molds Aspergillus fumigatus and A. flavus. MIC was defined as the lowest concentration inhibiting visual growth of the microorganism in RPMI-1640 media. […] However, in several cases antifungal activity against molds was minimal, Table 5.
(§5) Compound hits from the library screening were evaluated against baker yeast S. cerevisiae and C. albicans (ATCC 90028). The minimum inhibitory concentration (MIC) was defined as the lowest concentration inhibiting visual growth of the microorganism and this was determined in triplicate. Standard errors were typically less than 5%. MICs for synthesized compounds were determined on the following fungal isolates: Saccharomyces cerevisiae (ATCC 9763), Candida albicans (SC5314), Candida krusei (ATCC 6258), Candida glabrata (ATCC 90030), Aspergillus flavus (ATCC MYA-1005) and Aspergillus fumigatus (ATCC 13073), which were purchased from American Type Culture Collection, and C. glabrata strain Cg003, which was kindly provided by Julius Subik, Comenius University in Bratislava, Slovak Republic. Cg003 is a clinical isolate, characterized to be resistant to fluconazole and itraconazole due to overexpression of the multidrug resistance efflux pumps Cdr1p and Cdr2p^5. The fungal growth assay was performed as described in Kjellerup et al., 2017^6.

Candida glabrata Cg003 = test: Fungal growth inhibition MIC (MFC); assay type: cell-based; conditions: Nakaseomyces glabratus, Candida glabrata Cg003 (clinical azole-resistant isolate); for MIC: RPMI-1640; for MFC: value in brackets
Description: as §4, §5

Candida krusei ATCC 6258 = test: Fungal growth inhibition MIC (MFC); assay type: cell-based; conditions: Pichia kudriavzevii, ATCC6258; for MIC: Candida krusei ATCC 6258, RPMI-1640; for MFC: Candida krusei ATCC 6258, value in brackets
Description: as §4, §5

[2] = system: Saccharomyces cerevisiae ATCC 9763; test: Fungal growth inhibition MIC (MFC); assay type: cell-based; conditions: ATCC9763; for MIC: Saccharomyces cerevisiae ATCC 9763, RPMI-1640; for MFC: Saccharomyces cerevisiae ATCC 9763, value in brackets
Description: as §4, §5

[3] = system: Aspergillus flavus ATCC MYA-1005; test: Mold growth inhibition; assay type: cell-based; conditions: Aspergillus flavus ATCC MYA-1005, n=3; read-out: Fungal Growth Inhibition MIC
Description: as §4, §5

[4] = system: Aspergillus fumigatus ATCC 13073; test: Mold growth inhibition; assay type: cell-based; conditions: ATCC13073; Aspergillus fumigatus ATCC 13073, n=3; read-out: Fungal Growth Inhibition MIC
Description: as §4, §5

Row | Structure (SMILES) | IC50 (S. cerevisiae H^+-ATPase) | IC50 (C. albicans H^+-ATPase) | IC50 (Mammalian Ca^2+-ATPase) | IC50 [1] | MIC (Candida albicans SC5314) | MFC (Candida albicans SC5314) | MIC (Candida glabrata Cg003) | MFC (Candida glabrata Cg003) | MIC (Candida krusei ATCC 6258) | MFC (Candida krusei ATCC 6258) | MIC [2] | MFC [2] | MIC [3] | MIC [4] | potency on the Ca^2+-ATPase versus the three other pumps (Mammalian Ca^2+-ATPase) | IC50 (Mammalian Ca^2+-ATPase; pH 7, n = 3, read-out: ATP hydrolysis IC50 Mammalian Ca^2+-ATPase)
1 | CN1CCN(CC(O)Cn2c3ccc(Cl)cc3c3cc(Cl)ccc32)CC1 (stereo not drawn) [Compound 8, 1-(3,6-dichloro-9H-carbazol-9-yl)-3-(4-methylpiperazin-1-yl)propan-2-ol] | 52.7 ± 10.6 µM | 26.4 ± 2.5 µM | 36.8 ± 12.2 µM | 9.7 ± 3.3 µM | 68 µM (≈ 26.7 µg/mL) | 75 µM (≈ 29.4 µg/mL) | 58 µM (≈ 22.8 µg/mL) | 75 µM (≈ 29.4 µg/mL) | 75 µM (≈ 29.4 µg/mL) | > 75 µM | 7.5 µM (≈ 2.94 µg/mL) | 7.5 µM (≈ 2.94 µg/mL) | > 75 µM | 75 µM (≈ 29.4 µg/mL) |  | 
2 | CN1CCN(CC(O)Cn2c3ccc(O)cc3c3cc(O)ccc32)CC1 (stereo not drawn) [Compound 13, 9-(2-hydroxy-3-(4-methylpiperazin-1-yl)propyl)-9H-carbazole-3,6-diol] | > 167 µM | > 167 µM | > 167 µM | > 167 µM | > 75 µM | > 75 µM | > 75 µM | > 75 µM | > 75 µM | > 75 µM | > 75 µM | > 75 µM | > 75 µM | > 75 µM |  | 
3 | OC(Cn1ccnc1)Cn1c2ccc(Cl)cc2c2cc(Cl)ccc21 (stereo not drawn) [Compound 5, 1-(3,6-dichloro-9H-carbazol-9-yl)-3-(1H-imidazol-1-yl)propan-2-ol] | 23 ± 12.3 µM | 19.3 ± 2.6 µM | 10.7 ± 2.2 µM | 20.4 ± 2.3 µM | 24 µM (≈ 8.65 µg/mL) | > 75 µM | > 75 µM | > 75 µM | > 75 µM | > 75 µM | 24 µM (≈ 8.65 µg/mL) | 75 µM (≈ 27 µg/mL) | > 75 µM | > 75 µM |  | 
4 | Clc1ccc2c(c1)c1cc(Cl)ccc1n2CCCN1CCOCC1 [Compound 18, 4-(3-(3,6-dichloro-9H-carbazol-9-yl)propyl)morpholine] | 11.1 ± 3.8 µM | 5.9 ± 1.7 µM | 70.9 ± 8.4 µM | 7.7 ± 3.1 µM | > 75 µM | > 75 µM | > 75 µM | > 75 µM | > 75 µM | > 75 µM | > 75 µM | > 75 µM | > 75 µM | > 75 µM | much less potent on the Ca^2+-ATPase than the three other pumps | 
5 | CN1CCN(CCCn2c3ccc(Cl)cc3c3cc(Cl)ccc32)CC1 [Compound 16, 3,6-dichloro-9-(3-(4-methylpiperazin-1-yl)propyl)-9H-carbazole] | 20 ± 1 µM | 7.1 ± 0.5 µM | 23.2 ± 6.4 µM | 2.5 ± 0.6 µM | 24 µM (≈ 9.03 µg/mL) | 24 µM (≈ 9.03 µg/mL) | 7.5 µM (≈ 2.82 µg/mL) | 7.5 µM (≈ 2.82 µg/mL) | 7.5 µM (≈ 2.82 µg/mL) | 7.5 µM (≈ 2.82 µg/mL) | 2.4 µM (≈ 0.903 µg/mL) | 2.4 µM (≈ 0.903 µg/mL) | 24 µM (≈ 9.03 µg/mL) | 41 µM (≈ 15.4 µg/mL) |  | 
6 | OC(CN1CCOCC1)Cn1c2ccc(Cl)cc2c2cc(Cl)ccc21 (stereo not drawn) [Compound 7, 1-(3,6-dichloro-9H-carbazol-9-yl)-3-morpholinopropan-2-ol] | 6.9 ± 1.3 µM | 2.6 ± 0.4 µM |  | 6 ± 1.3 µM | 75 µM (≈ 28.4 µg/mL) | 75 µM (≈ 28.4 µg/mL) | > 75 µM | > 75 µM | > 75 µM | > 75 µM | 24 µM (≈ 9.1 µg/mL) | 24 µM (≈ 9.1 µg/mL) | > 75 µM | > 75 µM |  | 19.6 ± 7.2 µM
7 | CN(C)CCCCn1c2ccc(Cl)cc2c2cc(Cl)ccc21 [Compound 15] | 51.8 ± 0.5 µM | 31.1 ± 4.8 µM | 17.5 ± 11.4 µM | 5.1 ± 0.8 µM | 24 µM (≈ 8.05 µg/mL) | 24 µM (≈ 8.05 µg/mL) | 7.5 µM (≈ 2.51 µg/mL) | 24 µM (≈ 8.05 µg/mL) | 7.5 µM (≈ 2.51 µg/mL) | 16 µM (≈ 5.36 µg/mL) | 2.4 µM (≈ 0.805 µg/mL) | 5 µM (≈ 1.68 µg/mL) | 75 µM (≈ 25.1 µg/mL) | 24 µM (≈ 8.05 µg/mL) |  | 
